Laboratory results: patent publication US8859559B2, “Substituted pyrazines and their use in the treatment of disease” (Boehringer Ingelheim International GmbH, priority 2011, dated 2014)

Each compound was assayed against T1, ENaC (Epithelial Sodium Channel) (Mus musculus, UniProt Q61180+Q9WU38+Q9WU39) (assay: Ussing chamber: inhibition of amiloride sensitive short circuit current (I_sc) in M-1 cells). Conditions: mouse kidney M-1 cells.
T1 construct: Mouse kidney M-1 cells were cultivated in DMEM; endogenous in cells; host or cells: Mouse kidney M-1 cells (dexamethasone-treated, on transwell filters)
T1 sequence (Q61180 1-699): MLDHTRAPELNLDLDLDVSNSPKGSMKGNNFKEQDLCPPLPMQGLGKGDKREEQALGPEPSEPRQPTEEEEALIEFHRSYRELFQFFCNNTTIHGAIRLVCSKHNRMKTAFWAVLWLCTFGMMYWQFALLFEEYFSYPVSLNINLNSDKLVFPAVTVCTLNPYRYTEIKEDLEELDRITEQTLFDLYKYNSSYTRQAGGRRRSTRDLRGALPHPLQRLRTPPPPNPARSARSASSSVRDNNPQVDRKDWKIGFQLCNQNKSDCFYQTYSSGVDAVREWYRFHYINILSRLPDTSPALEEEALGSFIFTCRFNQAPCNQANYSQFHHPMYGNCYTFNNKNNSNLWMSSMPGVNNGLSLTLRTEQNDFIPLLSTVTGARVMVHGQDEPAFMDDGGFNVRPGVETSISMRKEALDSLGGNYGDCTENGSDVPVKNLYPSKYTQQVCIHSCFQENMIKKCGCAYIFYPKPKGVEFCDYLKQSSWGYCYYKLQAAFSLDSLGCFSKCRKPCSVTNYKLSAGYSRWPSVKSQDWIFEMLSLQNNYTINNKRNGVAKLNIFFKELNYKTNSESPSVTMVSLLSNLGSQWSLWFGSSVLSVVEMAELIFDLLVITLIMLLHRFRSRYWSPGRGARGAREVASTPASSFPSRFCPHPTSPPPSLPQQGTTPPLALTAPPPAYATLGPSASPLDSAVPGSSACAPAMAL
T1 sequence (Q9WU38 1-638): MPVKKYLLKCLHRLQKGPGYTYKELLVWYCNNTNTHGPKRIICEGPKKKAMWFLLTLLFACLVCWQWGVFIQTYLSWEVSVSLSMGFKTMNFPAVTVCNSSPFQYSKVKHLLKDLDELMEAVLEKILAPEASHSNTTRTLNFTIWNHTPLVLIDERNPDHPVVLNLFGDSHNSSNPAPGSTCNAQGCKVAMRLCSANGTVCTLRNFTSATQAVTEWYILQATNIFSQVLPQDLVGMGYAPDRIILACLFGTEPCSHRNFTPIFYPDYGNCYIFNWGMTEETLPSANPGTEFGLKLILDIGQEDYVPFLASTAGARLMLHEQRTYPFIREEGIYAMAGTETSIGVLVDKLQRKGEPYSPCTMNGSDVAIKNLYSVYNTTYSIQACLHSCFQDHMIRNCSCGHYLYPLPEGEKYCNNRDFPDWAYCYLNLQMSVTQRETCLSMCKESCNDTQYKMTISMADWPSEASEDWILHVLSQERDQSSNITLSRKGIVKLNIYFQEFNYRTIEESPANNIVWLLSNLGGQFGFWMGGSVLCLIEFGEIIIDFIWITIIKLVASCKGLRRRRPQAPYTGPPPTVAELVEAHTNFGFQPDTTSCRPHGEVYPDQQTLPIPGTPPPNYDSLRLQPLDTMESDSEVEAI
T1 sequence (Q9WU39 1-655): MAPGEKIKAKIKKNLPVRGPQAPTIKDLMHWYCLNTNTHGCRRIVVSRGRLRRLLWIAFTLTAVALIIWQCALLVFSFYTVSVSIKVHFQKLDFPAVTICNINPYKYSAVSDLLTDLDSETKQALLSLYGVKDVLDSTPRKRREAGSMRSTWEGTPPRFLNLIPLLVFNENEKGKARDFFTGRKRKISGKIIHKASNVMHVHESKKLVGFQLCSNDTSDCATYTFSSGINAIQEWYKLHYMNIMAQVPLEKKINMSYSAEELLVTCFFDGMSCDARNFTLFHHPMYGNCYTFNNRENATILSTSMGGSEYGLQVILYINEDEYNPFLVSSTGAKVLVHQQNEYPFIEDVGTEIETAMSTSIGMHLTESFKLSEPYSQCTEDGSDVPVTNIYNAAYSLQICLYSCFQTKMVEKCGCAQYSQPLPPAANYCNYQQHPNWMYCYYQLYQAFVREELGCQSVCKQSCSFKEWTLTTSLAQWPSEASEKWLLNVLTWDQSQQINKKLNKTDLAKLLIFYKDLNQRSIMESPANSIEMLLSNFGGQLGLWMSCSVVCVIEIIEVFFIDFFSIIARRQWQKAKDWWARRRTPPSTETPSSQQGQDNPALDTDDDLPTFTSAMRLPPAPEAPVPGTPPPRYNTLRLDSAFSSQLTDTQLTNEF
Type: cell-based
Method: Mouse kidney M-1 cells were cultivated in DMEM containing 5% FCS and 5 μM dexamethasone for 10 to 12 days on polyester transwell filters. Filters were inserted into a teflon-coated well-plate which fit into the in-house ussing chamber system. Prior to measurement the medium of M-1 cells was replaced with Caco-2 transport buffer (Invitrogen, Germany). During measurements, the Ussing chamber temperature was kept at 37° C. Short circuit currents (I_sc) were measured in the voltage-clamp mode using an in-house built amplifier (Boehringer Ingelheim, Biberach) with the software package Lab View for data acquisition and analysis. The transepithelial electrical resistance (TEER) was determined by the application of voltage steps of ±5 mV every 5 sec. Compounds were administered at a final concentration of 3 μM or at increasing concentrations (1-3-10 μM) to the apical solution. At the end of each experiment the amiloride sensitive I_SC was measured by adding 3 μM amiloride to the apical compartment. Results are expressed as inhibition in percent of the amiloride effect or as IC50. With the example compounds given above, the following IC50 values were determined in the Ussing Chamber assay: […]

Row | IC50 | SMILES
1 | 74 nM | COc1cc(C(=O)O)ccc1CN1CCC(NC(N)=NC(=O)c2nc(Cl)c(N)nc2N)CC1 [Example 8.9]
2 | 7 nM | CN(Cc1cn(CCc2ccc(CN3CCC(NC(N)=NC(=O)c4nc(Cl)c(N)nc4N)CC3)cc2)nn1)C(=O)CCNC(=O)OC(C)(C)C [Example 3.5]
3 | 17 nM | COc1cc(CN2CCC(NC(N)=NC(=O)c3nc(Cl)c(N)nc3N)CC2)cc(C(=O)O)c1 [Example 1.64]
4 | 15 nM | NC(=NC(=O)c1nc(Cl)c(N)nc1N)NC1CCN(Cc2ccc(CCn3cc(CCC(=O)N4CCOCC4)nn3)cc2)CC1 [Example 3.43]
5 | 5 nM | CN(C)CCCOc1ccc(CN2CCC(NC(N)=NC(=O)c3nc(Cl)c(N)nc3N)CC2)cc1 [Example 1.34]
6 | 45 nM | NC(=NC(=O)c1nc(Cl)c(N)nc1N)NC1CCN(Cc2ccc(-c3cn(CCOCCOCCOCCNC(=O)c4cc(OCCOCCOCCO)cc(OCCOCCOCCO)c4)nn3)cc2)CC1 [Example 5.7]
7 | 6 nM | CN(C)CCN(CCN(C)C)C(=O)c1ccc(CN2CCC(NC(N)=NC(=O)c3nc(Cl)c(N)nc3N)CC2)cc1 [Example 2.2]
8 | 6 nM | [N-]=[N+]=Nc1ccc(CN2CCC(N/C(N)=N/C(=O)c3nc(Cl)c(N)nc3N)CC2)cc1 [Example 1.10]
9 | 3 nM | NC(=NC(=O)c1nc(Cl)c(N)nc1N)NC1CCN(Cc2ccc(C(=O)NCCc3cccnc3)cc2)CC1 [Example 1.24]
10 | 39 nM | NC(=NC(=O)c1nc(Cl)c(N)nc1N)NC1CCN(Cc2ccc(Cn3cc(C(=O)O)ccc3=O)cc2)CC1 [Example 8.12]
11 | 25 nM | NC(=NC(=O)c1nc(Cl)c(N)nc1N)NC1CCN(Cc2ccc(OCc3cn(CCOCCOCCO)nn3)cc2)CC1 [Example 3.24]
12 | 7 nM | [N-]=[N+]=NCCOCCOCCOCCOc1ccc(CN2CCC(NC(N)=NC(=O)c3nc(Cl)c(N)nc3N)CC2)cc1 [Example 1.18]
13 | 12 nM | NC(=NC(=O)c1nc(Cl)c(N)nc1N)NC1CCN(Cc2ccc(-c3cn(CCOCCOCCOCCOCCOCCOCCOCCO)nn3)cc2)CC1 [Example 3.29]
14 | 2 nM | COC(=O)c1ccc(CN2CCC(N/C(N)=N/C(=O)c3nc(Cl)c(N)nc3N)CC2)cc1 [Example 1.29]
15 | 8 nM | C#CCCCCOC(=O)c1ccc(CN2CCC(NC(N)=NC(=O)c3nc(Cl)c(N)nc3N)CC2)cc1 [Example 1.9]
16 | 243 nM | NC(=NC(=O)c1nc(Cl)c(N)nc1N)NC1CCN(Cc2ccccc2C(=O)O)CC1 [Example 8.7]
17 | 49 nM | NC(=NC(=O)c1nc(Cl)c(N)nc1N)NC1CCN(Cc2ccc(-c3cn(CCOCCOCCOCCNC(=O)c4cc(OCCOCCOCCOCCOC(c5ccccc5)(c5ccccc5)c5ccccc5)cc(OCCOCCOCCOCCOC(c5ccccc5)(c5ccccc5)c5ccccc5)c4)nn3)cc2)CC1 [Example 3.31]
18 | 10 nM | NC(=NC(=O)c1nc(Cl)c(N)nc1N)NC1CCN(Cc2ccc(C(=O)OCCCCc3cn(CCOCCOCCOCCO)nn3)cc2)CC1 [Example 3.42]
19 | 6 nM | CN(C)CCNC(=O)Cc1ccc(CN2CCC(NC(N)=NC(=O)c3nc(Cl)c(N)nc3N)CC2)cc1 [Example 2.5]
20 | 227 nM | CC(C)(C)OC(=O)c1ccc(CN2CCC[C@H](NC(N)=NC(=O)c3nc(Cl)c(N)nc3N)C2)cc1 [Example 1.59]
21 | 2 nM | CN(C)Cc1cn(-c2ccc(CN3CCC(NC(N)=NC(=O)c4nc(Cl)c(N)nc4N)CC3)cc2)nn1 [Example 3.15]

Row | IC50 | SMILES
22 | 4 nM | NC(=NC(=O)c1nc(Cl)c(N)nc1N)NC1CCN(Cc2cccc(-c3cn(CCOCCOCCOCCO)nn3)c2)CC1 [Example 3.36]
23 | 2 nM | NC(=NC(=O)c1nc(Cl)c(N)nc1N)NC1CCN(Cc2ccc(C(=O)NCCCn3ccnc3)cc2)CC1 [Example 1.23]
24 | 4 nM | [N-]=[N+]=NCCc1ccc(CN2CCC(NC(N)=NC(=O)c3nc(Cl)c(N)nc3N)CC2)cc1 [Example 1.3]
25 | 12 nM | COc1ccc(CCN2CCC(NC(N)=NC(=O)c3nc(Cl)c(N)nc3N)CC2)cc1 [Example 1.19]
26 | 15 nM | COC(=O)c1ccccc1CN1CCC(NC(N)=NC(=O)c2nc(Cl)c(N)nc2N)CC1 [Example 1.43]
27 | 18 nM | NC(=NC(=O)c1nc(Cl)c(N)nc1N)NC1CCN(Cc2ccc(-n3cc(CCC(=O)N(CCOCCOCCO)CCOCCOCCO)nn3)cc2)CC1 [Example 3.16]
28 | 59 nM | COC(=O)COc1ccc(CN2CC[C@H](NC(N)=NC(=O)c3nc(Cl)c(N)nc3N)C2)cc1 [Example 1.42]
29 | 2 nM | N#Cc1ccc(CN2CCC(N/C(N)=N/C(=O)c3nc(Cl)c(N)nc3N)CC2)cc1 [Example 1.40]
30 | 2 nM | [N-]=[N+]=NCCOCCOCCOCCn1cc(COc2ccc(CN3CCC(NC(N)=NC(=O)c4nc(Cl)c(N)nc4N)CC3)cc2)nn1 [Example 3.22]
31 | 20 nM | NC(=NC(=O)c1nc(Cl)c(N)nc1N)NC1CCN(Cc2ccc(C(=O)NCCOCCOCCOCCn3cc(COC[B-](F)(F)F)nn3)cc2)CC1 [Example 3.9]
32 | 1 nM | CN(Cc1cn(CCc2ccc(CN3CCC(NC(N)=NC(=O)c4nc(Cl)c(N)nc4N)CC3)cc2)nn1)C(=O)CCNCCOCCOCCOCCOC(c1ccccc1)(c1ccccc1)c1ccccc1 [Example 3.6]
33 | 4 nM | C#CCOc1ccc(CN2CCC(NC(N)=NC(=O)c3nc(Cl)c(N)nc3N)CC2)cc1 [Example 1.4]
34 | 4 nM | CN(Cc1cn(-c2ccc(CN3CCC(NC(N)=NC(=O)c4nc(Cl)c(N)nc4N)CC3)cc2)nn1)C(=O)CCN [Example 4.2]
35 | 87 nM | NC(=NC(=O)c1nc(Cl)c(N)nc1N)N[C@@H]1CCCN(Cc2ccc(C(=O)O)cc2)C1 [Example 1.62]
36 | 23 nM | NC(=NC(=O)c1nc(Cl)c(N)nc1N)NC1CCN(Cc2ccc(C(=O)NCCOCCOCCOCCn3cc(CN4CCNCC4)nn3)cc2)CC1 [Example 3.10]
37 | 86 nM | N/C(=N\C(=O)c1nc(Cl)c(N)nc1N)NC1CCN(Cc2ccc(OCC(=O)O)cc2)CC1 [Example 8.8]
38 | 73 nM | COC(=O)COc1ccc(CN2CC[C@@H](NC(N)=NC(=O)c3nc(Cl)c(N)nc3N)C2)cc1 [Example 1.46]
39 | 6 nM | N/C(=N\C(=O)c1nc(Cl)c(N)nc1N)NC1CCN(Cc2ccccc2)CC1 [Example 1.25]
40 | 3 nM | N/C(=N\C(=O)c1nc(Cl)c(N)nc1N)NC1CCN(Cc2ccc(-c3cn(CCOCCOCCO)nn3)cc2)CC1 [Example 5.4]
41 | 9 nM | NC(=NC(=O)c1nc(Cl)c(N)nc1N)NC1CCN(Cc2cccc(-c3cn(CCOCCOCCOCCOCCOCCOC(c4ccccc4)(c4ccccc4)c4ccccc4)nn3)c2)CC1 [Example 3.37]
